Laboratory results taken from paper PMC8156053, “Synthesis, Characterization, and In Vitro Insulin-Mimetic Activity Evaluation of Valine Schiff Base Coordination Compounds of Oxidovanadium(V)” (Biomedicines, 2021).

What was measured:
[1] = biological target: T1, bovine serum albumin (BSA) (Bos taurus, UniProt P02769); test: Fluorescence quenching of serum albumin (Stern–Volmer); type: binding; details: highest tested concentration (2.5 × 10^−5 M), 2 × 10^−6 M BSA, PBS pH 7.4, vs free BSA and BSA with DMSO
T1 construct: α-Amylase from porcine pancreas, bovine serum albumin (BSA); purchased SIGMA-Aldrich (Merck KGaA, Darmstadt, Germany)
Method: The capacity of the oxidovanadium(V) compounds to bind to bovine serum albumin (BSA) was monitored by fluorescence quenching assay. A solution of 2 × 10^−6 M BSA in PBS, pH 7.4, was incubated for 2 h at 37 b0C with each vanadium-based compound or V^IVOSO4•3H2O at increasing molar concentrations (1 × 10^−6 ÷ 2.5 × 10^−5 M) or with 0.025% DMSO (negative control). The samples were excited at 295 nm and the emission spectra of all BSA solutions were recorded in the 300 ÷ 450 nm range using a JASCO FP-750 spectrofluorometer. The final spectrum was the average of three recordings measured at a scanning speed of 250 nm/minute, with an excitation and emission bandwidth of 5 nm. […] In addition, by applying the Stern–Volmer equation [23], the mechanism by which the complexes bind to BSA was investigated as it is described in the Supplementary material.
The Stern–Volmer e quation
The Stern–Vol mer equation [1] is:
I0/I= 1+ Kqτ0[Q] = 1 + Ksv[Q], where: I0 = the fluor escence intensities of fr ee BS A solution at 347 nm, I = the fluorescence intensities of BS A solution at 347 nm in the presence of vanadium […]
[Q] = the concentration of vanadium co mplexes, τ0 = the fluorescence l ifetime of the biopolymer (10-8 s), Kq = the coll isi on quenching constant;
Ksv = the Stern-Volmer constant.
Stern–Vol mer plots of the B SA fluorescence quenching in t he prese nce of each compou nd are represented in Fig. S4, together with the ir linear best fit in which y = I0/I, x = [Q], a = slope of the li ne, […]
The fluorescence intensitie s are the average of three recordings measured at a scanning speed of 250 nm/min, with an excitation and emissio n bandwidth of 5 nm.

HepG2 cells = test: Cytotoxicity, XTT cell viability assay; type: cell-based, human; details: highest concentration (3 × 10^−4 M), 24 h, compared to control cells
Method: HepG2 cell line was purchased from American Type Culture Collection. The cells were grown in Dulbecco’s Modified Eagle’s Medium (DMEM) with 4.5‰ glucose, supplemented with 10% (v/v) fetal bovine serum, 100 units/mL penicillin, and 100 µg/mL streptomycin (complete medium). HepG2 cells were maintained at 37 °C in a 5% carbon dioxide incubator and were periodically sub-cultivated.
To determine the cytotoxic concentration of the synthesized oxidovanadium(V) complexes and V^IVOSO4•3H2O, HepG2 cells were incubated with increasing molar concentrations (1 × 10^−5 ÷ 3 × 10^−4 M) of compounds.
HepG2 cells (1.5 × 10^4 cells/mL) were seeded in complete medium on a 96-well cell culture plate and were incubated at 37 b0C, as previously described. […] Control cells were represented by cells exposed to free-complete medium and medium supplemented with 0.15% DMSO. The cytotoxicity of tested compounds on the HepG2 cell line was assessed by the 2, 3-bis-(2-methoxy-4-nitro-5-sulfophenyl)-2H-tetrazolium-5-carboxanilide) (XTT) cell viability assay. The method is based on the reduction of XTT, in the presence of phenazine methosulfate, to a water-soluble orange formazan derivative. The absorbance of the sample, due to the intensity of the orange color, which is proportional to the number of viable cells, was recorded at 450 nm using the Tecan Infinite M200Pro spectrophotometer.

T1 sequence (P02769 25-607): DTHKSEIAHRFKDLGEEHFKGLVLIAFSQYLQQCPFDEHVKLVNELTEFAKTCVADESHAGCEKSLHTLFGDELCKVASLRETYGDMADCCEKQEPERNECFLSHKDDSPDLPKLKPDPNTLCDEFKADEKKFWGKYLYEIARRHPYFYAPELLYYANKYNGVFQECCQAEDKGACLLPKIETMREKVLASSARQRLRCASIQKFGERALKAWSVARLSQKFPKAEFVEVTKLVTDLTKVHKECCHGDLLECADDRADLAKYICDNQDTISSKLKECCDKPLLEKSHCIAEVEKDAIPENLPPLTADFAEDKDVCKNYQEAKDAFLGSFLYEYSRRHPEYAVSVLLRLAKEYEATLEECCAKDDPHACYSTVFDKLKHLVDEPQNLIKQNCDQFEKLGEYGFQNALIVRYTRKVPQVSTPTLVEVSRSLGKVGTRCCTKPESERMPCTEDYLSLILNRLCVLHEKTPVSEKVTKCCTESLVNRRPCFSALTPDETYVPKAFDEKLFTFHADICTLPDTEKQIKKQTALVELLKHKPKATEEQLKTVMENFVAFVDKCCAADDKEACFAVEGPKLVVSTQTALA

O.O.O.O=S(=O)([O-])[O-].[O]=[V+2] [V^IVOSO4•3H2O, reference compound]
decrease of BSA fluorescence intensity [1]: does not reduce the fluorescence intensity of BSA
reduction of HepG2 viability (HepG2 cells): 34%
